Assay results: ChEMBL document CHEMBL4007388, “Synthesis and antiproliferative activity of monocationic arylthiophene derivatives” (Eur J Med Chem, 2017)

Columns and labels:
[1] = test system: A549; experiment: Growth inhibition of human A549/ATCC cells incubated for 48 hrs by sulforhodamine B assay; assay type: functional; conditions: A549, 48 h
[2] = test system: SK-MEL-2; experiment: Growth inhibition of human SK-MEL-2 cells incubated for 48 hrs by sulforhodamine B assay; assay type: functional; conditions: SK-MEL-2, 48 h
[3] = test system: NCI-H460; experiment: Growth inhibition of human NCI-H460 cells incubated for 48 hrs by sulforhodamine B assay; assay type: functional; conditions: NCI-H460, 48 h
[4] = test system: SNB-75; experiment: Growth inhibition of human SNB75 cells incubated for 48 hrs by sulforhodamine B assay; assay type: functional; conditions: SNB-75, 48 h
[5] = test system: SF-295; experiment: Growth inhibition of human SF295 cells incubated for 48 hrs by sulforhodamine B assay; assay type: functional; conditions: SF-295, 48 h
[6] = test system: OVCAR-4; experiment: Growth inhibition of human OVCAR4 cells incubated for 48 hrs by sulforhodamine B assay; assay type: functional; conditions: OVCAR-4, 48 h
[7] = test system: NCI-H226; experiment: Growth inhibition of human NCI-H226 cells incubated for 48 hrs by sulforhodamine B assay; assay type: functional; conditions: NCI-H226, 48 h
[8] = test system: SK-MEL-5; experiment: Growth inhibition of human SK-MEL-5 cells incubated for 48 hrs by sulforhodamine B assay; assay type: functional; conditions: SK-MEL-5, 48 h
[9] = test system: MCF7; experiment: Growth inhibition of human MCF7 cells incubated for 48 hrs by sulforhodamine B assay; assay type: functional; conditions: MCF7, 48 h
[10] = test system: Malme-3M; experiment: Growth inhibition of human MALME-3M cells incubated for 48 hrs by sulforhodamine B assay; assay type: functional
[11] = test system: TK-10; experiment: Growth inhibition of human TK10 cells incubated for 48 hrs by sulforhodamine B assay; assay type: functional; conditions: TK-10, 48 h
[12] = test system: T47D; experiment: Growth inhibition of human T47D cells incubated for 48 hrs by sulforhodamine B assay; assay type: functional
[13] = organism: Homo sapiens; experiment: Inhibition of PTK in human MCF7 cells at 1 uM preincubated for 2 hrs followed by poly-Glu-Tyr substrate addition by ELISA relative to control; assay type: cell-based
[14] = test system: SF-268; experiment: Growth inhibition of human SF268 cells incubated for 48 hrs by sulforhodamine B assay; assay type: functional; conditions: SF-268, 48 h
[15] = test system: MDA-MB-231; experiment: Growth inhibition of human MDA-MB-231 cells incubated for 48 hrs by sulforhodamine B assay; assay type: functional; conditions: MDA-MB-231, 48 h
[16] = test system: HOP-92; experiment: Growth inhibition of human HOP92 cells incubated for 48 hrs by sulforhodamine B assay; assay type: functional; conditions: HOP-92, 48 h
[17] = test system: NCI-H23; experiment: Growth inhibition of human NCI-H23 cells incubated for 48 hrs by sulforhodamine B assay; assay type: functional; conditions: NCI-H23, 48 h
[18] = test system: Hs-578T; experiment: Growth inhibition of human Hs 578T cells incubated for 48 hrs by sulforhodamine B assay; assay type: functional
[19] = Inhibition of PTK in human MCF7 cells preincubated for 2 hrs followed by poly-Glu-Tyr substrate addition by ELISA; assay type: cell-based
[20] = Safety index, ratio of compound IC50 to 5-fluorouracil IC50 for human WI38 cells; assay type: ADME, cell-based; conditions: WI-38 cells, read-out: Ratio IC50
[21] = Safety index, ratio of compound IC50 to 5-fluorouracil IC50 for human WISH cells; assay type: ADME, cell-based; conditions: read-out: Ratio IC50

SMILES | GI50 [1] [nM] | GI50 [2] [nM] | GI50 [3] [nM] | GI50 [4] [nM] | GI50 [5] [nM] | GI50 [6] [nM] | GI50 [7] [nM] | GI50 [8] [nM] | GI50 [9] [nM] | GI50 [10] [nM] | GI50 [11] [nM] | GI50 [12] [nM] | inhibition [13] [%] | GI50 [14] [nM] | GI50 [15] [nM] | GI50 [16] [nM] | GI50 [17] [nM] | GI50 [18] [nM] | IC50 [19] [nM] | other results
N=C(N)c1ccc(-c2ccc(-c3ccc(F)cc3)s2)cc1 | 2120 | 2050 | 392 | 1650 | 1660 | 1630 | 2190 | 1600 | 323 | 1550 | 1850 | 1200 | 19 to 36 | 1540 | 1560 | 1540 | 1580 | 2160 |  | 
COc1cc(OC)cc(-c2ccc(-c3ccc(C(=N)N)cc3)s2)c1 | 2580 | 1950 | 1840 | 1580 | 1820 | 2060 | 2230 | 1810 | 1220 | 1840 | 1970 | 1650 | 19 to 36 | 1850 | 2080 | 1750 | 1920 | 1990 |  | 
N=C(N)c1ccc(-c2ccc(-c3ccccc3)s2)cc1F | 5100 | 4910 | 3690 | 10500 |  | 10400 | 12900 | 3430 | 3170 | 3250 | 10700 | 5130 | 19 to 36 | 11200 | 3340 | 1310 | 11600 | 10900 |  | 
N=C(N)c1ccc(-c2ccc(-c3ccc(Cl)cc3)s2)cc1 | 202 | 241 | 193 | 157 | 171 | 172 | 451 | 204 | 171 | 219 | 220 | 179 | 98 | 184 | 184 | 156 | 190 | 200 | 13 | 
COc1cc(OC)cc(-c2ccc(-c3ccc(C(=N)N)c(F)c3)s2)c1 | 400 | 1860 | 195 | 1300 | 1590 | 361 | 1730 | 956 | 194 | 195 | 1780 |  | 74 | 1150 |  | 665 | 1430 | 1470 | 877 | 
N=C(N)c1ccc(-c2ccc(-c3ccc(Cl)cc3)s2)cc1F | 217 | 1500 | 207 | 165 | 691 | 224 | 2030 | 1270 | 168 | 490 | 1740 |  | 88 | 197 |  | 589 | 1150 | 726 | 107 | selectivity ratio [20]: 6; selectivity ratio [21]: 9
COc1ccc(-c2ccc(-c3ccc(C(=N)N)c(F)c3)s2)cc1 | 4760 | 2410 | 2430 | 10700 |  | 6420 | 14400 | 2670 | 2080 | 2150 | 4330 | 2920 | 66 | 4850 | 2750 | 1380 | 11000 | 4820 | 920 | 
